From patent US8193191B2, “Urotensin II receptor antagonists” (Janssen Pharmaceutica N.V., priority 2006, dated 2012) come the findings set out here.

For experiment [1], the target named is T1, rat GPR14 (U-II receptor) (Rattus norvegicus, UniProt P49684).
T1 construct: expressed in transfected cells
T1 sequence (P49684 1-386): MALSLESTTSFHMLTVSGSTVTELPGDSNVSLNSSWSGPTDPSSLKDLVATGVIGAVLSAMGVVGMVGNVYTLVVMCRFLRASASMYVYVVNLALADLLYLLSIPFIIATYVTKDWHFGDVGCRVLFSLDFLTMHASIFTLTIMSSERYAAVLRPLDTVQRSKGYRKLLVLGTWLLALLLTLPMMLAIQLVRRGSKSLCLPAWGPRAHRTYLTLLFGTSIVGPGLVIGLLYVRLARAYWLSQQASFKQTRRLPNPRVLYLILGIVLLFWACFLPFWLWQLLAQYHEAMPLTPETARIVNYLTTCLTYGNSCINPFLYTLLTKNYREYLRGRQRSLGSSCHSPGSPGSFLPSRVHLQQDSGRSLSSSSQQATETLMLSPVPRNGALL
In words: Rat UII Calcium Mobilization FLIPR Assay. The class given is cell-based. The following applies: for inhibition at 10 µM / inhibition at 50 µM: CHO, 5 min, agonist-induced Ca2+ mobilization (FLIPR), CHO cells with rat UII receptor; for inhibition at 10 µM: 10 μM compound, read-out: % I @ 10; for inhibition at 50 µM: 50 μM compound, read-out: % I @ 50. The essentials: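 CHO cells stably expressing rat U-II receptor, seeded 24 h before assay, were loaded with FLIPR calcium dye in HBSS/20 mM HEPES/0.1% BSA/2.5 mM probenecid, pH 7.4, for 1 h at 37° C. Calcium mobilization then read by FLIPR at 23° C.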
A general note: A change in cytosolic calcium serves as a functional read-out for many receptors and channels.

Experiment [2] concerns the target T2, endogenous human UII receptor (Homo sapiens, UniProt Q9UKP6).
T2 sequence (Q9UKP6 1-389): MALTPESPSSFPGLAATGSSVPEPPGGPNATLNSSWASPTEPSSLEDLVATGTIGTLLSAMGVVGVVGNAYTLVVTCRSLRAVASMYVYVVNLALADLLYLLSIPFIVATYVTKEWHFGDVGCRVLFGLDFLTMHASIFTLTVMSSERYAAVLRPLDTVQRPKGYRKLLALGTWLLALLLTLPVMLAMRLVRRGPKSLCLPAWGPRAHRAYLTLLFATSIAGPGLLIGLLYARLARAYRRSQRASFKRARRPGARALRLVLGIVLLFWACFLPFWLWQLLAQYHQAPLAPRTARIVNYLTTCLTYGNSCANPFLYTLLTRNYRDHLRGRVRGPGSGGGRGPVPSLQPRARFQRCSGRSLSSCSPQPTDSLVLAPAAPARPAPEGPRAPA
Put plainly: Human Radioligand Binding Assay ((^125I)-U-II binding to human skeletal muscle myoblasts).

[3] abbreviates: Inhibition of Acetyl-cyclic[Cys-Phe-Trp-Lys-(2-Nal)-Cys]-NH2 induced Ca2+ mobilization (FLIPR) in CHO cells transfected with rat UII receptor, read-out: IC50.
Setting [4] is: Inhibition of human UII binding to human skeletal muscle myoblasts containing endogenous human UII receptor.

pIC50, pKi: −log10 of the molar value. “And” between values parts separate entries of the source, which are not always exact repeats. Identical values can stand only once. Like-named read-outs stand apart in the source and are kept apart here.

For the compound `CCC(c1ccc(OC)c(OC)c1)N1C(=O)c2cccc(N3CCN([C@H](C)c4ccccc4)CC3)c2C1=O` (stereo partly drawn) [Cpd 8, 2-[1-(3,4-dimethoxy-phenyl)-propyl]-4-[4-(1R)-(1-phenyl-ethyl)-piperazin-1-yl]-isoindole-1,3-dione], in experiment [1], the inhibition at 10 µM came out at 100% and the inhibition at 50 µM is 100%. Also, in experiment [1] (setting [3]), the pIC50 is 6.74. This compound also had a pKi in experiment [2] (setting [4]) of 6.51.
Turning to `COc1ccc(CN2C(=O)c3c(Cl)ccc(N4CC5CCC(C4)N5Cc4ccccc4)c3C2=O)cc1OC` [Cpd 9, 4-(8-benzyl-3,8-diaza-bicyclo[3.2.1]oct-3-yl)-7-chloro-2-(3,4-dimethoxy-benzyl)-isoindole-1,3-dione], in experiment [1], the inhibition at 10 µM was found to be 91% and the inhibition at 50 µM turned out to be 81%. Moreover, in experiment [1] (setting [3]), the pIC50 was 6.72. This compound also gave a pKi in experiment [2] of 6.18.
`COc1ccc(CN2C(=O)c3cccc(N4CCN(Cc5ccc(F)cc5)CC4)c3C2=O)cc1OC` [Cpd 12, 2-(3,4-dimethoxy-benzyl)-4-[4-(4-fluoro-benzyl)-piperazin-1-yl]-isoindole-1,3-dione]: the pIC50 in experiment [1] (setting [3]) was 5.55 and 6.43. The pKi in experiment [2] is 5.35.
With `CCC(c1ccccc1)N1CCN(c2cccc3c2C(=O)N(Cc2ccc(OC)c(OC)c2)C3=O)CC1` (stereo not shown) [Cpd 13, 2-(3,4-dimethoxy-benzyl)-4-[4-(1-phenyl-propyl)-piperazin-1-yl]-isoindole-1,3-dione], in experiment [1], the inhibition at 10 µM was determined as 95% and the inhibition at 50 µM amounted to 99%. Further, the pIC50 in experiment [1] (setting [3]) is 6.39. In experiment [2], this compound had a pKi of 5.40.
The matching figures for `COc1cc(CN2C(=O)c3cccc(N4CCN([C@H](C)c5ccccc5)CC4)c3C2=O)ccc1O` [Cpd 15, 2-(4-hydroxy-3-methoxy-benzyl)-4-[4-(1R)-(1-phenyl-ethyl)-piperazin-1-yl]-isoindole-1,3-dione]: 100%, 100%, 6.09 and 5.28.
For `COc1ccc(CN2C(=O)c3cccc(N4CCN(Cc5cccc(F)c5)CC4)c3C2=O)cc1OC` [Cpd 17, 2-(3,4-dimethoxy-benzyl)-4-[4-(3-fluoro-benzyl)-piperazin-1-yl]-isoindole-1,3-dione], in experiment [1], the inhibition at 10 µM amounted to 99% and the inhibition at 50 µM was determined as 101%. In addition, in experiment [1] (setting [3]), the pIC50 is 5.96. For the same compound, the negative-log Ki (pKi) in experiment [2] is 5.46.
Take `CCOc1ccc(CN2C(=O)c3cccc(N4CCN([C@H](C)c5ccccc5)CC4)c3C2=O)cc1OC` [Cpd 18, 2-(4-ethoxy-3-methoxy-benzyl)-4-[4-(1R)-(1-phenyl-ethyl)-piperazin-1-yl]-isoindole-1,3-dione]: in experiment [1], the inhibition at 10 µM stood at 98% and the inhibition at 50 µM was found to be 101%. Moreover, the pIC50 in experiment [1] (setting [3]) is 5.85. This compound also had a pKi in experiment [2] of 5.54.
The corresponding values for `COc1ccc(CN2C(=O)c3cccc(C4=CCN(Cc5ccccc5)CC4)c3C2=O)cc1OC` [Cpd 19, 4-(1-benzyl-1,2,3,6-tetrahydro-pyridin-4-yl)-2-(3,4-dimethoxy-benzyl)-isoindole-1,3-dione] are 94%, 100%, 5.82 and 5.28.
In the case of `COc1ccc(CN2C(=O)c3cccc(N4CCN(C(C)(C)c5ccccc5)CC4)c3C2=O)cc1OC` [Cpd 28, 2-(3,4-dimethoxy-benzyl)-4-[4-(1-methyl-1-phenyl-ethyl)-piperazin-1-yl]-isoindole-1,3-dione], in experiment [1], the inhibition at 10 µM came out at 75% and the inhibition at 50 µM is 101%. Further, the pIC50 in experiment [1] (setting [3]) was 5.38. Moreover, the pKi in experiment [2] is 5.26.
For `COc1ccc(C(CN(C)C)N2C(=O)c3cccc(N4CCN([C@H](C)c5ccccc5)CC4)c3C2=O)cc1OC` (stereo partly drawn) [Cpd 63, 2-[1-(3,4-dimethoxy-phenyl)-2-dimethylamino-ethyl]-4-[4-(1R)-(1-phenyl-ethyl)-piperazin-1-yl]-isoindole-1,3-dione], in experiment [1], the inhibition at 10 µM was 102% and the inhibition at 50 µM came out at 102%. Moreover, the pIC50 in experiment [1] (setting [3]) is 6.40. This compound showed a pKi in experiment [2] of 5.55.
`COc1ccc(C(CN)N2C(=O)c3cccc(N4CCN([C@H](C)c5ccccc5)CC4)c3C2=O)cc1OC` (stereo partly drawn) [Cpd 64, 2-[2-amino-1-(3,4-dimethoxy-phenyl)-ethyl]-4-[4-(1R)-(1-phenyl-ethyl)-piperazin-1-yl]-isoindole-1,3-dione]: in experiment [1], the inhibition at 10 µM amounted to 101% and the inhibition at 50 µM was determined as 98%. In addition, the pIC50 in experiment [1] (setting [3]) is 6.52. This compound also gave a pKi in experiment [2] of 6.15.
Consider `COc1ccc(C(CCCNC(=O)OC(C)(C)C)N2C(=O)c3cccc(N4CCN([C@H](C)c5ccccc5)CC4)c3C2=O)cc1OC` (stereo partly drawn) [Cpd 65, (4-(3,4-dimethoxy-phenyl)-4-{1,3-dioxo-4-[4-(1R)-(1-phenyl-ethyl)-piperazin-1-yl]-1,3-dihydro-isoindol-2-yl}-butyl)-carbamic acid tert-butyl ester], for which, in experiment [1], the inhibition at 10 µM worked out at 103% and the inhibition at 50 µM was 102%. The pIC50 in experiment [1] (setting [3]) was 6.70. This compound had a pKi in experiment [2] (setting [4]) of 6.70.
With `COc1ccc(C(CCCN)N2C(=O)c3cccc(N4CCN([C@H](C)c5ccccc5)CC4)c3C2=O)cc1OC` (stereo partly drawn) [Cpd 66, 2-[4-amino-1-(3,4-dimethoxy-phenyl)-butyl]-4-[4-(1R)-(1-phenyl-ethyl)-piperazin-1-yl]-isoindole-1,3-dione], in experiment [1], the inhibition at 10 µM turned out to be 101% and the inhibition at 50 µM was 97%. For the same compound, the pIC50 in experiment [1] (setting [3]) was 6.70. For the same compound, in experiment [2] (setting [4]), the pKi was 5.49.
As to `COc1ccc(C(CCCNS(C)(=O)=O)N2C(=O)c3cccc(N4CCN([C@H](C)c5ccccc5)CC4)c3C2=O)cc1OC` (stereo partly drawn) [Cpd 67, N-(4-(3,4-dimethoxy-phenyl)-4-{1,3-dioxo-4-[4-(1R)-(1-phenyl-ethyl)-piperazin-1-yl]-1,3-dihydro-isoindol-2-yl}-butyl)-methanesulfonamide], in experiment [1], the inhibition at 10 µM came out at 101% and the inhibition at 50 µM is 99%. Besides, the IC50 in experiment [1] (IC50 (μM), Inhibition of Acetyl-cyclic[Cys-Phe-Trp-Lys-(2-Nal)-Cys]-NH2 induced Ca2+ mobilization (FLIPR) in CHO cells transfected with rat UII receptor) is 0.11 µM. Also, the pIC50 in experiment [1] (setting [3]) is 7.00. The compound further had a pKi in experiment [2] of 5.85.
`COc1ccc(C(CCCNS(=O)(=O)c2cccs2)N2C(=O)c3cccc(N4CCN([C@H](C)c5ccccc5)CC4)c3C2=O)cc1OC` (stereo partly drawn) [Cpd 68, thiophene-2-sulfonic acid (4-(3,4-dimethoxy-phenyl)-4-{1,3-dioxo-4-[4-(1R)-(1-phenyl-ethyl)-piperazin-1-yl]-1,3-dihydro-isoindol-2-yl}-butyl)-amide]: in experiment [1], the inhibition at 10 µM was found to be 98% and the inhibition at 50 µM is 99%. Also, in experiment [1] (setting [3]), the negative-log IC50 (pIC50) is 7.00 and 7.10. This compound also gave a pKi in experiment [2] (setting [4]) of 7.12.
In the case of `COc1ccc(C(CCCCNC(=O)OC(C)(C)C)N2C(=O)c3cccc(N4CCN([C@H](C)c5ccccc5)CC4)c3C2=O)cc1OC` (stereo partly drawn) [Cpd 69, (5-(3,4-dimethoxy-phenyl)-5-{1,3-dioxo-4-[4-(1R)-(1-phenyl-ethyl)-piperazin-1-yl]-1,3-dihydro-isoindol-2-yl}-pentyl)-carbamic acid tert-butyl ester], in experiment [1], the inhibition at 10 µM turned out to be 11% and the inhibition at 50 µM came to 52%. Besides, in experiment [1] (setting [3]), the pIC50 was 4.19. The pKi in experiment [2] was under 5.00.
For `COc1ccc(C(CCCCN)N2C(=O)c3cccc(N4CCN([C@H](C)c5ccccc5)CC4)c3C2=O)cc1OC` (stereo partly drawn) [Cpd 70, 2-[5-amino-1-(3,4-dimethoxy-phenyl)-pentyl]-4-[4-(1R)-(1-phenyl-ethyl)-piperazin-1-yl]-isoindole-1,3-dione], in experiment [1], the inhibition at 10 µM came to 102% and the inhibition at 50 µM was 101%. The pIC50 in experiment [1] (setting [3]) is 6.52 and 6.57. Further, in experiment [2], the pKi was 5.27.
In the case of `COc1ccc(CN2C(=O)c3cccc(C4CCN(Cc5ccccc5)CC4)c3C2=O)cc1OC` [Cpd 76, 4-(1-benzyl-piperidin-4-yl)-2-(3,4-dimethoxy-benzyl)-isoindole-1,3-dione], in experiment [1], the inhibition at 10 µM was 98% and the inhibition at 50 µM was found to be 99%. For the same compound, the pIC50 in experiment [1] (setting [3]) is 6.02. In addition, the pKi in experiment [2] was 5.82.
For `COc1ccc(CN2C(=O)c3cccc(N4CCN(Cc5ccc(C)o5)CC4)c3C2=O)cc1OC` [Cpd 77, 2-(3,4-dimethoxy-benzyl)-4-[4-(5-methyl-furan-2-ylmethyl)-piperazin-1-yl]-isoindole-1,3-dione], the pIC50 in experiment [1] (average value for the compound tested, read-out: Rat UII FLIPR Average IC50) is 6.07. In experiment [2], this compound gave a pKi of 5.14.

By pIC50 is commonly meant the IC50 on a negative log10 scale, so that one unit is a factor of ten. As a reminder, the pKi is the Ki on a negative log10 scale, so that one unit is a factor of ten. Low values mean a high Ki, high ones a low Ki. As usually defined, the IC50 is the concentration at which inhibition is half-maximal.
